Like-named read-outs stand apart in the source and are kept apart here.
Experiments:
[1] = target: T1, recombinant human MERTK expressed in live cells (HEK 293, MERTK-Nanoluc fusion vector) (Homo sapiens, UniProt Q12866); assay: Assay 2 MERTK cellular target engagement (NanoBRET TE) assay; assay type: cell-based
T1 construct: host or cells: HEK 293
T1 sequence (Q12866 21-999): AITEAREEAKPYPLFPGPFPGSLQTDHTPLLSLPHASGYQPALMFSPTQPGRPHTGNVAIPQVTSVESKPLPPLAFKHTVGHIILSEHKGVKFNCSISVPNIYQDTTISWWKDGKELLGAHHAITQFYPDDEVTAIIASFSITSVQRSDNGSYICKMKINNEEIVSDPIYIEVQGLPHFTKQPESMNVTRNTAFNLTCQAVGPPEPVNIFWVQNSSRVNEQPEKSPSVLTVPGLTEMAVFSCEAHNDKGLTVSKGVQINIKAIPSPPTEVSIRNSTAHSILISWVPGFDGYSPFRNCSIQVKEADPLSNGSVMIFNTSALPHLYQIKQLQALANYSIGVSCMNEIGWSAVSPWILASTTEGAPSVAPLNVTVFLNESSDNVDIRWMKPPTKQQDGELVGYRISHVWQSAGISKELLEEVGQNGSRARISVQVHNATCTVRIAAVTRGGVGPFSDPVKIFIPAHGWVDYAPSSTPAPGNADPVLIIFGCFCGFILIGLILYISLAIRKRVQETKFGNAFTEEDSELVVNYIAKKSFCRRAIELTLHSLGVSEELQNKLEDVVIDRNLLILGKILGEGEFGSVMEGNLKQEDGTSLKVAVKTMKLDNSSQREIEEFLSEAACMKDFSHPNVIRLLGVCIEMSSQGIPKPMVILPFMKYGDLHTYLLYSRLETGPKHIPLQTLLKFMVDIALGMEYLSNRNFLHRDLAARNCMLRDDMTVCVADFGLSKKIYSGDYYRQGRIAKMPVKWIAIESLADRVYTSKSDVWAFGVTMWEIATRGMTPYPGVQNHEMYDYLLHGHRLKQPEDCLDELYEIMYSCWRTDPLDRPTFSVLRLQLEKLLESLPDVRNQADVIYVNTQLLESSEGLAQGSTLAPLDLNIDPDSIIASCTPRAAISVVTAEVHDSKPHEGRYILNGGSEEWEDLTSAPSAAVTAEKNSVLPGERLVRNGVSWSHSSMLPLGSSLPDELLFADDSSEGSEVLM

[2] = target: T2, recombinant human AXL expressed in live cells (HEK, AXL-Nanoluc fusion vector) (Homo sapiens, UniProt P30530); assay: Assay 3 AXL cellular target engagement (NanoBRET TE) assay; assay type: cell-based
T2 construct: host or cells: HEK
T2 sequence (P30530 26-894): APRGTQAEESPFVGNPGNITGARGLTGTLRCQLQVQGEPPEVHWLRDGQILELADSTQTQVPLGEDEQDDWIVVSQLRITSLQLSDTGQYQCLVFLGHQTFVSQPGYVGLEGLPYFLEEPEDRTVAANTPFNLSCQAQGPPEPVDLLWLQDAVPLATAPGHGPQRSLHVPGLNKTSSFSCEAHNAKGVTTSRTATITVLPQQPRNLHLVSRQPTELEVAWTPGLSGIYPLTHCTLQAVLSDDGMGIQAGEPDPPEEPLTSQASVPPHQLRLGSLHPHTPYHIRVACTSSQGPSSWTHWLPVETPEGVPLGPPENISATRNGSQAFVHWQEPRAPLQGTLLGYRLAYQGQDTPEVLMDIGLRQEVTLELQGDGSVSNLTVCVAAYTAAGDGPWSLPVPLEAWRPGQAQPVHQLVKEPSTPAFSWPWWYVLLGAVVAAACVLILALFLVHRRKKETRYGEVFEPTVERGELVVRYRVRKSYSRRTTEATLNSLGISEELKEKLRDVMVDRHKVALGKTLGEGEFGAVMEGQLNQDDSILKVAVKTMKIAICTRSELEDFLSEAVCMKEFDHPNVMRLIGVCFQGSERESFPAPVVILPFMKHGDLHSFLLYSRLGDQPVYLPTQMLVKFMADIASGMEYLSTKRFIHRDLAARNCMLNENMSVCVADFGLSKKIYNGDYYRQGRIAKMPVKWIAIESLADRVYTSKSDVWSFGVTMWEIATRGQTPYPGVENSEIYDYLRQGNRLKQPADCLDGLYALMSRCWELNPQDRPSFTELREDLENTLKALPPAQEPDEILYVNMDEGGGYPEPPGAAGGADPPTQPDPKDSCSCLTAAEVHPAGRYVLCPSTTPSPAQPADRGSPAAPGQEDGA
Procedure: Assay 3—AXL Cellular Target Engagement (TE) Assay
Compound affinities for recombinant human AXL expressed in live cells were assessed via the Promega NanoBRET TE assay technology. Human Embryonic Kidney (HEK) cells were transiently transfected with the AXL-Nanoluc fusion vector (Promega Cat NV1071) using Fugene HD reagent (Promega E2311). […] Incubations were conducted for 2 h at 37° C., after which 20 μl NanoGlo substrate/inhibitor mix (Promega N2161) was added to each well for 2-3 min. The plate was then read on a BMG Pherastar FSX using a NanoBRET filter to record donor emission at 450 nm and acceptor fluorophore emission at 610 nm. From this the BRET ratio (acceptor 610 nm/donor 450 nm) for each data point was calculated.

[3] = HEK 293 cells, tracer K9, 2 h at 37° C., read-out: Assay 2 Cell TE MER IC50

| SMILES | IC50 [1, 3] | IC50 [2] | IC50 [1] |
| --- | --- | --- | --- |
| CN1CCC(NC(=O)c2cc3c(Nc4ccc(NC(=O)c5cccn(-c6ccccc6)c5=O)cc4)ccnc3cn2)CC1 [Example 3, N-(1-methyl-4-piperidyl)-4-[4-[(2-oxo-1-phenyl-pyridine-3-carbonyl)amino]anilino]-1,7-naphthyridine-6-carboxamide] | 0.0263 µM | 0.007 µM | – |
| O=C(Nc1ccc(Oc2ccnc3cnc(N4CCNCC4)cc23)cc1)c1cccn(-c2ccc(F)cc2)c1=O [Example 12.2, 1-(4-fluorophenyl)-2-oxo-N-[4-[(6-piperazin-1-yl-1,7-naphthyridin-4-yl)oxy]phenyl]pyridine-3-carboxamide] | 0.0183 µM | 0.0288 µM | – |
| CC(C)n1cc(C(=O)Nc2ccc(Oc3ccnc4cnc(N5CCNCC5)cc34)cc2)c(=O)n(-c2ccccn2)c1=O [Example 12.3, 1-isopropyl-2,4-dioxo-N-[4-[(6-piperazin-1-yl-1,7-naphthyridin-4-yl)oxy]phenyl]-3-(2-pyridyl)pyrimidine-5-carboxamide] | 0.244 µM | 0.0808 µM | – |
| CC(C)n1cc(C(=O)Nc2ccc(Oc3ccnc4cnc(N5CCNCC5)cc34)cc2)c(=O)n(-c2ccc(F)cn2)c1=O [Example 12.4, 3-(5-fluoro-2-pyridyl)-1-isopropyl-2,4-dioxo-N-[4-[(6-piperazin-1-yl-1,7-naphthyridin-4-yl)oxy]phenyl]pyrimidine-5-carboxamide] | 0.0454 µM | 0.0128 µM | – |
| CC(C)n1cc(C(=O)Nc2ccc(Oc3ccnc4cnc(N5CCNCC5)cc34)cc2)c(=O)c(-c2ccc(F)cc2)c1 [Example 13, 5-(4-Fluorophenyl)-1-isopropyl-4-oxo-N-[4-[(6-piperazin-1-yl-1,7-naphthyridin-4-yl)oxy]phenyl]pyridine-3-carboxamide] | 0.0067 µM | 0.0071 µM | – |
| Cn1cc(C(=O)Nc2ccc(Oc3ccnc4cnc(N5CCNCC5)cc34)cc2)c(=O)c(-c2ccc(F)cc2)c1 [Example 13.1, 5-(4-fluorophenyl)-1-methyl-4-oxo-N-[4-[(6-piperazin-1-yl-1,7-naphthyridin-4-yl)oxy]phenyl]pyridine-3-carboxamide] | 0.0124 µM | 0.0159 µM | – |
| C[C@H](CO)n1cc(C(=O)Nc2ccc(Oc3ccnc4cnc(C(=O)NC5CCN(C)CC5)cc34)cc2)c(=O)n(-c2ccc(F)cc2)c1=O [Example 14, 4-[4-[[3-(4-Fluorophenyl)-2,4-dioxo-1-[(1R)-2-hydroxy-1-methyl-ethyl]pyrimidine-5-carbonyl]amino]phenoxy]-N-(1-methyl-4-piperidyl)-1,7-naphthyridine-6-carboxamide] | 0.0759 µM | 0.031 µM | – |
| CN1CCC(NC(=O)c2cc3c(Oc4ccc(NC(=O)c5cn(C6CC6)c(=O)n(-c6ccc(F)cc6)c5=O)cc4)ccnc3cn2)CC1 [Example 15, 4-[4-[[1-Cyclopropyl-3-(4-fluorophenyl)-2,4-dioxo-pyrimidine-5-carbonyl]amino]phenoxy]-N-(1-methyl-4-piperidyl)-1,7-naphthyridine-6-carboxamide] | 0.133 µM | 0.0332 µM | – |
| CC(C)n1cc(C(=O)Nc2ccc(Oc3ccnc4cnc(C(=O)NC5CCN(C)CC5)cc34)cn2)c(=O)n(-c2ccc(F)cc2)c1=O [Example 27.5, 4-[[6-[[3-(4-fluorophenyl)-1-isopropyl-2,4-dioxo-pyrimidine-5-carbonyl]amino]-3-pyridyl]oxy]-N-(1-methyl-4-piperidyl)-1,7-naphthyridine-6-carboxamide] | 0.0305 µM | 0.014 µM | – |
| Cc1cc(NC(=O)c2cccn(-c3ccccc3)c2=O)ccc1Oc1ccnc2cnc(N3CCNCC3)cc12 [Example 30, N-[3-methyl-4-[(6-piperazin-1-yl-1,7-naphthyridin-4-yl)oxy]phenyl]-2-oxo-1-phenyl-pyridine-3-carboxamide] | – | 0.339 µM | 0.244 µM |
| CN1CCC(NC(=O)c2cc3c(Oc4ccc(NC(=O)c5cccn(-c6ccccc6)c5=O)cc4F)ccnc3cn2)CC1 [Example 33, 4-[2-fluoro-4-[(2-oxo-1-phenyl-pyridine-3-carbonyl)amino]phenoxy]-N-(1-methyl-4-piperidyl)-1,7-naphthyridine-6-carboxamide] | 0.0743 µM | 0.0638 µM | – |
| O=C(Nc1ccc(Oc2ccnc3cnc(N4CCNCC4)cc23)cc1)c1cn(C2CC2)c(=O)n(-c2ccc(F)cc2)c1=O [Example 36, 1-cyclopropyl-3-(4-fluorophenyl)-2,4-dioxo-N-[4-[(6-piperazin-1-yl-1,7-naphthyridin-4-yl)oxy]phenyl]pyrimidine-5-carboxamide] | 0.0681 µM | 0.0257 µM | – |
| CN1CCC(NC(=O)c2cc3c(Oc4ccc(NC(=O)c5cn(C)cc(-c6ccc(F)cc6)c5=O)cc4)ccnc3cn2)CC1 [Example 37, 4-[4-[[5-(4-fluorophenyl)-1-methyl-4-oxo-pyridine-3-carbonyl]amino]phenoxy]-N-(1-methyl-4-piperidyl)-1,7-naphthyridine-6-carboxamide] | 0.0414 µM | 0.0335 µM | – |
| CC(C)n1cc(C(=O)Nc2ccc(Oc3ccnc4cnc(C(=O)NC5CCN(C)CC5)cc34)cc2)c(=O)c(-c2ccc(F)cc2)c1 [Example 37.1, 4-[4-[[5-(4-fluorophenyl)-1-isopropyl-4-oxo-pyridine-3-carbonyl]amino]phenoxy]-N-(1-methyl-4-piperidyl)-1,7-naphthyridine-6-carboxamide] | 0.0083 µM | 0.0061 µM | – |
